Measured values as given in patent publication US10772902B2, “Use of floridoside or isethionic acid to potentiate antimicrobial activity of antibiotics” (OCELAND BIOLOGICALS LIMITED, priority 2016, dated 2020).
Converted amounts (≈) assume the structure as drawn.

Assays:
S. Enteritidis [1] = assay: Antimicrobial effect of seaweed pure compounds, broth inoculation method (log CFU/mL); format: cell-based, Salmonella Enteritidis; settings: 15 μg/mL of compound, no antibiotic; for colony count of S. Enteritidis, log CFU: control log CFU 6.5
Method: These pure compounds were tested in vitro against S. Enteritidis using the broth inoculation method of Example 2, but without the tetracycline or streptomycin. Fifteen (15) μg/mL of each compound was added to TSA broth and inoculated with S. Enteritidis.

S. Enteritidis [2] = assay: Minimum inhibitory concentrations (MIC25, MIC50) of antibiotics, broth inoculation method; format: cell-based; settings: Salmonella enterica, 37° C., 16-18 h, inoculum 1×10^8 cells/mL
Method: Nalidixic acid resistant strain of S. Enteritidis was provided by Laboratory for Foodborne Zoonoses, Public Health Agency of Canada, Guelph, Ontario. Half strength tryptic soy agar (TSA) medium (Difco) supplemented with nalidixic acid at a concentration of 32 μg/mL was used for bacterial growth. Tetracycline and Streptomycin were obtained from Sigma Aldrich (Oakville, Ontario, Canada). Stock solutions of antibiotics and seaweed extract were prepared and stored at −20° C. Other chemicals and media were purchased from Difco Laboratories, Baltimore, Md., USA. Red seaweeds (Chondrus crispus, and Sarcodiotheca gaudichaudii) were provided by Acadian Seaplants Limited, Nova Scotia, Canada.
The susceptibility of S. Enteritidis to tetracycline and streptomycin was tested by broth inoculation method. The testing of MICs (MIC25 and MIC50) was performed in triplicates with an inoculum of 1×10^8 cells/mL. […] MATLAB R2010a (curve fitting tool) was used to determine minimum inhibitory concentrations (MIC) of the antibiotics.

S. Enteritidis [3] = assay: Combined effect of seaweed extract and antibiotics, liquid culture inhibition test (CFU); format: cell-based, Salmonella Enteritidis
Method: Seaweed water extracts (SWE) were prepared by grinding sun dried seaweeds to fine powder using a coffee grinder, and adding 5 grams of algal powder to 20 mL distilled water (DW). The resulting slurry was incubated at 50° C. for 3 hours under shaking condition at 140 rpm using an orbital shaker (New Brunswick Scientific, Enfield, Conn., US). The slurry was then centrifuged at 10,000 g for 15 min. The supernatant was recovered and the residual pellet was re-extracted three times using the same procedure. The resulting supernatants were pooled and freeze dried (Thermo Fisher Scientific Inc., US). Dilutions of SWE were prepared by dissolving 0.2, 0.4, 0.8, 1 and 2 g of soluble freeze dried extract in 1 mL distilled water. These dilutions were used as working concentration in all the experiments. The combined effect of the C. crispus (CC) extract or the S. gaudichaudii (SG) extract, with tetracycline or streptomycin (at MIC25 or MIC50), was evaluated in vitro by liquid culture inhibition test. To 10 mL of tryptic soy broth, seaweed extract (SWE) and 100 μL Salmonella Enteritidis (OD600=0.1, 1×10^8 cells/mL) were added. The final concentrations of seaweed extracts in 10 mL with tryptic soy broth were 200, 400, or 800 μg/mL. Culture tubes were incubated at 37° C. for 24 hrs. The growth of S. Enteritidis was determined by plating the serially diluted culture on TSA plates to enumerate the colony forming units (CFU).

Row | SMILES | colony count of S. Enteritidis, log CFU (S. Enteritidis [1]) [log CFU] | MIC (S. Enteritidis [2]) [µg/mL] | MIC50 (S. Enteritidis [2]) [µg/mL] | CFU of S. Enteritidis compared to control (S. Enteritidis [1]) | also measured
1 | OCC(CO)O[C@H]1O[C@H](CO)[C@H](O)[C@H](O)[C@H]1O [Floridoside, 2-O-α-D-galactopyranosylglycerol] | 6.21 | – | – | – | –
2 | [H]/N=C(/N)N[C@H]1[C@H](O)[C@@H](O)[C@H](O[C@@H]2O[C@@H](C)[C@](O)(C=O)[C@H]2O[C@@H]2O[C@@H](CO)[C@H](O)[C@@H](O)[C@@H]2NC)[C@@H](N/C(N)=N\[H])[C@@H]1O [Streptomycin] | – | 1 (≈ 1.72 µM) | 1.63 (≈ 2.8 µM) | – | –
3 | NC(=O)NCCC[C@H](N)C(=O)O [citrulline] | – | – | – | no statistically significant difference | –
4 | O=S(=O)(O)CCO [isethionic acid, Isethionic acid] | 6.33 | – | – | – | –
5 | NCCS(=O)(=O)O [taurine] | – | – | – | no statistically significant difference | –
6 | CN(C)[C@@H]1C(O)=C(C(N)=O)C(=O)[C@@]2(O)C(O)=C3C(=O)c4c(O)cccc4[C@@](C)(O)[C@H]3C[C@@H]12 [tetracycline] | – | ≤ 7.9 | ≤ 4 | – | growth of S. Enteritidis, log CFU (S. Enteritidis [3]; MIC controls (tetracycline without SG extract)): 5.5 log CFU; growth of S. Enteritidis, log CFU (S. Enteritidis [3]; tetracycline alone at MIC25, 24 hrs): 6.1 log CFU; growth of S. Enteritidis, log CFU (S. Enteritidis [3]; tetracycline alone at MIC50, 24 hrs): 5.5 log CFU
